Experiments:
Shigella sp. = experiment: Antibacterial activity against Shigella typhi assessed as concentration required to obtain a zone of inhibition of 10 mm after 18 to 24 hr by disc diffusion method; assay type: functional
Pseudomonas aeruginosa = experiment: Antibacterial activity against Pseudomonas aeruginosa assessed as concentration required to obtain a zone of inhibition of 20 mm after 18 to 24 hr by disk diffusion method; assay type: functional
Escherichia coli [1] = experiment: Antibacterial activity against Escherichia coli assessed as concentration required to obtain a zone of inhibition of 10 mm after 18 to 24 hr by disk diffusion method; assay type: functional
Fusarium solani = experiment: Antifungal activity against Fusarium solani assessed as concentration required to obtain a zone of inhibition of 20 mm after 7 days by disk diffusion method; assay type: functional
T-cell [2] = experiment: Anti-inflammatory activity in Homo sapiens (human) T lymphocytes assessed as inhibition of PHA-induced [3H] thymidine uptake at 3.12 ug/ml incubated for 72 hr prior to [3H]thymidine addition measured after 18 hr by liquid scintillation method; assay type: functional
Escherichia coli [3] = experiment: Antibacterial activity against Escherichia coli assessed as zone of inhibition at 5 to 40 ug/ml after 18 to 24 hr by disk diffusion method relative to gatifloxacin; assay type: functional
Klebsiella pneumoniae [4] = experiment: Antibacterial activity against Klebsiella pneumoniae assessed as zone of inhibition at 5 to 40 ug/ml after 18 to 24 hr by disk diffusion method relative to gatifloxacin; assay type: functional
[5] = Antibacterial activity against Hofmanni bacterium assessed as concentration required to obtain a zone of inhibition of 5 mm after 18 to 24 hr by disc diffusion method
Shigella flexneri = experiment: Antibacterial activity against Shigella flexneri assessed as concentration required to obtain a zone of inhibition of 5 mm after 18 to 24 hr by disk diffusion method; assay type: functional
Bacillus subtilis [6] = experiment: Antibacterial activity against Bacillus subtilis assessed as concentration required to obtain a zone of inhibition of 10 mm after 18 to 24 hr by disk diffusion method; assay type: functional
T-cell [7] = experiment: Anti-inflammatory activity in Homo sapiens (human) T lymphocytes assessed as inhibition of PHA-induced [3H] thymidine uptake at 12.5 ug/ml incubated for 72 hr prior to [3H]thymidine addition measured after 18 hr by liquid scintillation method; assay type: functional
Citrobacter = experiment: Antibacterial activity against Citrobacter assessed as concentration required to obtain a zone of inhibition of 20 mm after 18 to 24 hr by disk diffusion method; assay type: functional
Proteus mirabilis = experiment: Antibacterial activity against Proteus mirabilis assessed as zone of inhibition at 5 to 40 ug/ml after 18 to 24 hr by disc diffusion method relative to gatifloxacin; assay type: functional
Blood = experiment: Antioxidant activity in Homo sapiens (human) whole blood assessed as inhibition of ROS production at 100 ug/ml after 30 min by luminol-enhanced chemiluminescence assay; assay type: functional; details: 0.5 h
Bacillus subtilis [8] = experiment: Antibacterial activity against Bacillus subtilis assessed as concentration required to obtain a zone of inhibition of 5 mm after 18 to 24 hr by disk diffusion method; assay type: functional
Klebsiella pneumoniae [9] = experiment: Antibacterial activity against Klebsiella pneumoniae assessed as concentration required to obtain a zone of inhibition of 20 mm after 18 to 24 hr by disk diffusion method; assay type: functional
Candida albicans = experiment: Antifungal activity against Candida albicans assessed as zone of inhibition at 5 to 40 ug/ml after 7 days by disk diffusion method relative to gatifloxacin; assay type: functional

| Compound | Activity (Shigella sp.) | Activity (Pseudomonas aeruginosa) | Activity (Escherichia coli [1]) | Activity (Fusarium solani) | inhibition at 3.12 µg/mL (T-cell [2]) | inhibition zone (IZ) (Escherichia coli [3]) | inhibition zone (IZ) (Klebsiella pneumoniae [4]) | Activity [5] | Activity (Shigella flexneri) | Activity (Bacillus subtilis [6]) | inhibition at 12.5 µg/mL (T-cell [7]) | Activity (Citrobacter) | inhibition zone (IZ) (Proteus mirabilis) | inhibition at 100 µg/mL (Blood) | Activity (Bacillus subtilis [8]) | Activity (Klebsiella pneumoniae [9]) | inhibition zone (IZ) (Candida albicans) |
| --- | --- | --- | --- | --- | --- | --- | --- | --- | --- | --- | --- | --- | --- | --- | --- | --- | --- |
| COc1c(N2CCN(C(=O)c3ccccc3)C(C)C2)c(F)cc2c(=O)c(C(=O)O)cn(C3CC3)c12.O (centres undefined) | 9 µg/mL | 18 µg/mL | 16 µg/mL | 17 µg/mL | -59.5% | 117.3% | 99.8% | 6 µg/mL | 11 µg/mL | 15 µg/mL | -41.5% | 12 µg/mL | 78.8% | 15% | 12 µg/mL | 21 µg/mL | 141% |
| CCCCCCCC(=O)N1CCN(c2c(F)cc3c(=O)c(C(=O)O)cn(C4CC4)c3c2OC)CC1C.O (centres undefined) |  | 11 µg/mL | 10 µg/mL | 14 µg/mL | -59.5% | 90.78% | 113% | 7 µg/mL | 12 µg/mL | 11 µg/mL | -41.5% | 15 µg/mL | 92% | 96.1% | 10 µg/mL | 18 µg/mL | 218% |
| COc1c(N2CCN(C(C)=O)C(C)C2)c(F)cc2c(=O)c(C(=O)O)cn(C3CC3)c12.O (centres undefined) |  | 24 µg/mL | 17 µg/mL | 13 µg/mL | -23.4% | 134.8% | 158% | 8 µg/mL | 19 µg/mL | 15 µg/mL | -35.7% | 24 µg/mL | 76.6% | -15.1% | 11 µg/mL | 25 µg/mL | 206% |
